Where a name gives a salt, the structure may show the parent alone.

In assay [1] the target is T1, porcine pancreatic PLA2 (Sus scrofa, UniProt P00592).
T1 construct: from tissue; host or cells: porcine pancreas
Briefly: In Vitro Phospholipase A2 Assay (PLA2). Format: biochemical. The conditions noted are these: 0.01 M test compound, 37° C., pH 8.0; read-out: PLA2 (difference vs. control). The method, then: In Vitro Phospholipase A2 Assay (PLA2)
The ability of a compound to modulate PLA2 activity (cleavage of ^14 C-dipalmitoyl phosphotidylcholine at the 2-position to ^14 C-palmitic acid) was quantitated in this assay. The reaction mixture contained Tris buffer (25 mM), pH 8.0, calcium chloride (2.0 mM), bovine serum albumin (0.5 mg), dipalmitoyl phosphotidylcholine (8×10^-5M), (^14 C-palmitoyl)dipalmitoyl phosphotidylcholine (6×10^3cpm), porcine pancreatic PLA2 (3.2 units) and the test compound. The reaction was run at 37° C. in a shaking incubator. The reaction was quenched and an internal standard was added in order to determine sample recovery. The samples were loaded onto C18 columns, eluted with ethanol, and the radioactivity was then measured. […] See Feyen, J. H. M., et al., Journal of Chromatography 259 (1983), pp. 338-340.

Assay [2] has as its system mouse ear edema induced by topical application of arachidonic acid. Briefly: Arachidonic Acid-Induced Ear Edema (AAEE). Format: in vivo, Female Swiss Webster mice. The procedure: Arachidonic Acid-Induced Ear Edema (AAEE)
The purpose of this assay was to determine the ability of a topically-applied compound to prevent mouse ear edema induced by topical application of arachidonic acid. Female Swiss Webster mice topically received vehicle or test compound (1.0 mg/ear) on both ears (10 μl on outer and inner ears). After 30 minutes, the right ear of all groups received arachidonic acid (4 mg/ear) and the left ear received vehicle alone. After an additional 1 hour, the mice were sacrificed and an ear punch (4 mm) was taken from each ear. The difference in right and left ear punch weights for each animal was determined to assess activity. […] See Young, J. M. et al., J. Invest. Dermatol., 80, (1983), pp 48-52.

In assay [3] the test system is naja naja (snake venom) phospholipase A2 -induced paw edema. Briefly: Phospholipase A2-induced Paw Edema (PIPE). Format: in vivo, male Wistar rats. The method, then: Phospholipase A2 -induced Paw Edema (PIPE)
The ability of compounds to prevent naja naja (snake venom) phospholipase A2 -induced paw edema in male Wistar rats (100-125 g) was measured. PLA2 (3 units/paw) alone or with 0.1M of the test compound was injected in the subplantar region of the rat left hindpaw. Immediately subsequent to the injection and at two hours post administration the paw was immersed in a mercury bath, and paw displacement was measured on a recorder via a transducer. […] See Giessler, A. J. et al., Agents and Actions, Vol. 10, Trends in Inflammation Research (1981), p. 195.

Assay [4] has as its system ear edema induced by topical application of TPA (phorbol 12-myristate acetate). Briefly: TPA-Induced Ear Edema (TPAEE). Format: in vivo, Female Swiss Webster mice. The conditions noted are these: for TPAEE: 10 μg/ear topical, TPA 10 μg/ear, five hours. The method, then:
TPA-Induced Ear Edema (TPAEE)
The purpose of this assay was to determine the ability of a topically-applied compound to prevent ear edema induced by topical application of TPA (phorbol 12-myristate acetate). Female Swiss Webster mice topically received TPA (10 μg/ear) on the right ear and vehicle on the left ear. The test compound (10 μg/ear) was applied to both ears. After five hours, the animals were sacrificed and an ear punch (4 mm) was taken from each ear. The difference in right and left ear punch weights for each animal was determined to assess activity. […] See Young, J. M. et al., J. Invest. Dermatol., 80 (1983), pp. 48-52.

T1 sequence (P00592 23-146): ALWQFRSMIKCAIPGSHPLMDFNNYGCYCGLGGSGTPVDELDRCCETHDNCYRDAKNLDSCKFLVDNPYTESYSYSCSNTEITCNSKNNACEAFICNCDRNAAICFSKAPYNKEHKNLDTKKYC

As to `COC(=O)c1ccccc1Oc1cnccc1N` [2-(4-Amino-3-pyridinyloxy)benzoic acid methyl ester hydrochloride], the inhibition at 10000 µM in assay [1] worked out at 38%.
As for `Nc1ccncc1Oc1ccccc1CO` [2-(4-Amino-3-pyridinyloxy)benzenemethanol oxalate], the inhibition at 10000 µM in assay [1] was determined as 82%.
With `COc1ccc2c(c1)c(CC(=O)O)c(C)n2C(=O)c1ccc(Cl)cc1` [indomethacin, reference compound], the “ED50 (AAEE standard)” value in assay [2] (standard, topical) is 1.5 mg/ear.
Regarding `C[C@]12CCC(=O)C=C1CC[C@@H]1[C@@H]2[C@@H](O)C[C@@]2(C)[C@H]1CC[C@]2(O)C(=O)CO` [hydrocortisone, reference compound], in assay [3] (standard, rat paw edema), the “ED50 (PIPE standard)” value is on record as 0.46 M. In addition, in assay [4] (standard, topical), the “ED50 (TPAEE standard)” value worked out at 47 μg/ear.
Consider `COc1ccc(Oc2c[n+]([O-])ccc2[N+](=O)[O-])cc1` [3-(4-Methoxyphenoxy)-4-nitropyridine-1-oxide], for which the TPAEE in assay [4] was -43%.
For the molecule `Nc1cnccc1Oc1ccccc1` [4-phenoxy-3-pyridinamine, 4-Phenoxy-3-pyridinamine], in assay [4], the TPAEE is -34%.
For the molecule `CCOC(=O)Cc1ccc(Oc2cnccc2N)cc1.O=C(O)C(=O)O` [4-(4-Amino-3-pyridinyloxy)benzeneacetic acid ethyl ester oxalate], the TPAEE in assay [4] was -39%.
Consider `CC(=O)Nc1ccncc1Oc1ccccc1` [N-(3-Phenoxy-4-pyridinyl)acetamide hydrochloride], for which the inhibition at 10000 µM in assay [1] came out at 73%.
Turning to `Cl.Nc1ccncc1Oc1ccccc1` [3-phenoxy-4-pyridinamine hydrochloride, 3-Phenoxy-4-pyridinamine hydrochloride], the inhibition at 10000 µM in assay [1] turned out to be 95%. In addition, in assay [3] (0.1 M test compound injected with PLA2 (3 units/paw), subplantar, rat hindpaw, two hours post administration), the “PIPE (difference in edema vs. control)” value is recorded as -79%. For the same molecule, in assay [4], the TPAEE was -60%. Besides, the AAEE in assay [2] (1 mg/ear topical, arachidonic acid 4 mg/ear, 1 hour) is reported as -31%.

(Values after US4959377A, “Phenoxypyridinamine compounds which are use as a dermatological composition” (Hoechst-Roussel Pharmaceuticals Inc., priority 1989, dated 1990).)
